# Patent publication US10213494B2, “Treatment of synucleinopathies” (The Brigham and Women's Hospital, Inc., priority 2007, dated 2019)
# Columns and labels:
# [1] = tested on: α-synuclein protein in MES23.5 cells; test: Western blot of α-synuclein in co-transfected MES23.5 cells; type: cell-based, human; conditions: co-expression with αS for 24 hours; syn-1, 7071AP and hSA-2 antibodies
# Description: Cells were transfected with 0, 0.25, 0.5, 1, 5, and 10 μg (per 10 cm dish) of plasmid. 24 hours later, cells were washed with Tris-buffered saline and lysed in 140 mM NaCl, 50 mM Tris-Hcl, pH 8.0, 1 mM EDTA, 0.5% Triton-X100, and 1× protease inhibitors. Lysates were centrifuged at 100,000×g for 30 min at 4° C.; the top 2/3 of supernatants were removed and frozen in siliconized tubes at −80° C. Samples were run on SDS/PAGE, using 1 mM DTT as the reducing agent. Expression of the αS protein was confirmed at 24 hours post-transfection by Western blotting, where cell lysates were probed with a monoclonal antibody against αS protein (syn-1 antibody, BD Transduction Labs).
# MES23.5 cells were transfected with 0.5 μg αS-encoding SNCA cDNA per 10 cm dish plus either 1.25, 2.5 or 5 μg (low, medium, or high) GBA-encoding cDNA in the absence or presence of 5 μg of Prosaposin-encoding cDNA. All arms of the experiment were balanced up to a total of 10.5 μg cDNA per 10 cm dish using empty vector cDNA. The GBA- and Prosaposin-encoding cDNA plasmids under a CMV promoter, as well as the pCMV-XL5 empty vector were purchased from OriGene Technologies, Inc (clones had been fully sequence-verified after isolation and a maxiprep). 24 hours later, cells were lysed and probed for GBA and αS protein levels. The upper panel in of FIG. 2B3 is a representation of a Western Blot indicating expression of GBA protein in the absence and presence of co-transfected prosaposin. GBA was probed using the monoclonal antibody 8E4. GBA over-expression occurred in a slightly gene-dosage dependent way in the absence of prosaposin. In the presence of prosaposin over-expression, the GBA signal itself was decreased. […]
# [2] = tested on: A30P, E46K, A53T, S129D, S129A and DQ/AA variants of α-synuclein in MES23.5 cells; test: Sandwich ELISA of mutant α-synuclein variants in MES23.5 cells co-transfected with CTSD cDNA; type: cell-based, human; conditions: cathepsin D cDNA 5 μg/10 cm dish
# Description: Sera from six rabbits were raised and affinity-purified at Open Biosystems, Inc. (openbiosystems.com) against recombinant, full-length human αS. Recombinant αS had been HPLC- and MS-characterized and subjected to amino acid composition and protein concentration analyses. For ELISA, 384-well MaxiSorp plates (Nunc, Inc) were coated with 50 μl/well capturing polyclonal Ab (hSA-2) diluted in coating buffer (NaHCO3 with 0.2% NaN3, pH 9.6). Following washes with PBS/0.05% Tween-20 (PBS-T), plates were blocked for 2 hours at 37° C. in blocking buffer (1.125% fish skin gelatin; PBS-T). After 4 washes, samples were loaded and incubated at 4° C. for 12 hours. Biotinylated Syn-1 mAb (as the assaying Ab) was generated using 200 μg Sulfo-NHS-LC Biotin (Pierce), diluted in blocking buffer and added to the plate for 2 hours at 37° C. Following 4 washes, ExtrAvidin phosphatase (Sigma) diluted in blocking buffer was applied for 1 hr at 37° C. Color development was carried out by using Fast-p-Nitrophenyl Phosphate (Sigma) and monitored kinetically at OD 405 nm every 5 minutes for up to 60 minutes.
# To examine whether Cathepsin D could also reduce the levels of missense mutation-carrying αS proteins, MES23.5 cells were transfected with low amounts (0.5 μg/10 cm dish) of SNCA cDNA encoding either the A30P, E46K or A53T variants of α-synuclein which are linked to familial Parkinson Disease in humans, as well as a S129D and a S129A mutant. Phosphorylation of αS at the Serine 129 residue is known to be a pathological hallmark of αS aggregates in vivo (Anderson J et al., 2006, J Biol Chem, 281:29739-29752). Mutation of a Ser residue to Asp is known in the art to mimic sustained, serine-based phosphorylation. The S129A mutant, a phosphorylation-incompetent mutant of αS, was also included for comparison.
# As shown in the bar graph of FIG. 7, the co-expression of Cathepsin D-encoding CTSD cDNA (5 μg/10 cm dish) with either A30P, E46K, A53T, S129D, or S129A αS caused a similar degree reduction in αS levels for all αS proteins examined, when compared to their co-expression with empty vector DNA. When comparing the changes in α-synuclein steady-state to well-characterized levels of recombinant α-synuclein protein that was loaded in parallel, it was estimated that cathepsin D over-expression (at a cDNA concentration of 5 μg/10 cm dish) led to intracellular α-synuclein levels that were 23.98+/−3.57%, 33.08+/−18.51%, 39.21+/−14.63%, 34.84+/−11.36% and 34.31+/−13.39% of cognate control levels, for A30P, E46K, A53T, S129D, or S129A αS polypeptides, respectively (n=2 (−3) from 2-3 independent experiments).
# Of note, residues D98 and Q99 of αS represent the motif by which αS is recognized by the Lamp2a receptor during chaperone mediated autophagy (CMA); Cuervo et al, 2004, Science, vol 305, pp 1292-1295). To investigate the importance of this motif in the αS-lowering action induced by cathepsin D, MES 23.5 cells were also transfected with a cDNA (0.5 μg/10 cm dish) encoding a mutant αS variant, where the D98 and Q99 residues had both been changed to Alanine (A) by site-directed mutagenesis (i.e., DQ/AA-variant of αS). When comparing the changes in the DQ/AA-αS steady-state to well-characterized levels of recombinant α-synuclein protein that were loaded in parallel, it was estimated that cathepsin D over-expression (5 μg/10 cm dish) led to intracellular DQ/AA αS levels that were 22.14+/−5.32% of the vector control levels, (n=3, from 3 independent experiments; not shown).
substance,measurement,setting,value
cathepsin D: human lysosomal aspartyl protease expressed from CTSD cDNA plasmid under a CMV promoter,generation of lower or higher molecular weight αS species,[1],did not lead to the generation of any visible lower or higher molecular weight species
same,"intracellular α-synuclein level, % of cognate control levels",[2]; A30P αS,23.98+/−3.57%
same,"intracellular α-synuclein level, % of cognate control levels",[2]; A53T αS,39.21+/−14.63%
same,"intracellular DQ/AA αS level, % of vector control levels","[2]; DQ/AA αS (D98A/Q99A), n=3",22.14+/−5.32%
same,"intracellular α-synuclein level, % of cognate control levels",[2]; E46K αS,33.08+/−18.51%
same,"intracellular α-synuclein level, % of cognate control levels",[2]; S129A αS,34.31+/−13.39%
same,"intracellular α-synuclein level, % of cognate control levels",[2]; S129D αS,34.84+/−11.36%
